Columns and labels:
[1] = target: T1, DYRK1/DYRK1A (Homo sapiens, UniProt Q13627); experiment: DYRK1/DYRK1A IC50 assay (Reaction Biology Corp.); type: biochemical; conditions: DYRK1/DYRK1A assay from Reaction Biology Corp.
T1 construct: purchased Reaction Biology Corp

[2] = target: T2, DYRK1A (Homo sapiens, UniProt Q13627); experiment: KINOMEscan DYRK1A binding assay (DiscoverX), Kd determination; conditions: eleven serial three fold dilutions, highest concentration 60 μM, several values in a cell = repeat determinations
T2 construct: purchased DiscoverX
Protocol: Compounds were tested for DYRK1A binding activity at DiscoverX. DiscoverX uses proprietary KINOMEscan® Assay (Fabian et al., “A Small Molecule-kinase Interaction Map for Clinical Kinase Inhibitors,” Nat. Biotechnol. 23(3):329-336 (2005), which is hereby incorporated by reference in its entirety). Compounds were screened for DYRK1A activity at a single concentration of 3 μM in duplicates. Similarly, the dissociation constant Kd of the hit compounds from the initial screening was determined at DiscoverX using their proprietary KINOMEscan® Assay. Kd values are determined using eleven serial three fold dilutions with the highest concentration of 60 μM.

Row | IC50 [1] [nM] | Kd [2] [nM] | Compound
1 | 1.83 | 15 | O=c1[nH]c2ccc(-c3cncc(NCCCc4ccccc4)c3)cc2[nH]1 [Compound 30p, 5-(5-((3-Phenylpropyl)amino)pyridin-3-yl)-1H-benzo[d]imidazol-2(3H)-one]
2 | 0.3 | 0.86 | Cn1c(=O)[nH]c2ccc(-c3cncc(NCc4ccccc4F)c3)cc21 [Compound 30q, 6-(5-((2-Fluorobenzyl)amino)pyridin-3-yl)-1-methyl-1H-benzo[d]imidazol-2(3H)-one]
3 | 0.1 | 1.3 | Cn1c(=O)[nH]c2ccc(-c3cncc(NCc4ccccc4Cl)c3)cc21 [Compound 30r, 6-(5-((2-Chlorobenzyl)amino)pyridin-3-yl)-1-methyl-1H-benzo[d]imidazol-2(3H)-one]
4 | – | 14 | NC(=O)c1ccc(CNc2cncc(-c3ccc4[nH]c(=O)[nH]c4c3)c2)cc1 [Compound 33b, 4-(((5-(2-Oxo-2,3-dihydro-1H-benzo[d]imidazol-5-yl)pyridin-3-yl)amino)methyl)benzamide]
5 | 3.98 | 3.2 | N[C@H](Cc1ccccc1)c1cncc(-c2ccc3[nH]c(=O)[nH]c3c2)c1 [Compound 65a, (R)-5-(5-(1-Amino-2-phenylethyl)pyridin-3-yl)-1H-benzo[d]imidazol-2(3H)-one]
6 | 23.2 | 15 | N[C@@H](Cc1ccccc1)c1cncc(-c2ccc3[nH]c(=O)[nH]c3c2)c1 [Compound 65b, (S)-5-(5-(1-Amino-2-phenylethyl)pyridin-3-yl)-1H-benzo[d]imidazol-2(3H)-one]

Row | Compound | IC50 [1] [nM] | Kd [2] [nM]
7 | C[C@@H](Nc1cncc(-c2ccc3[nH]c(=O)[nH]c3c2)c1)c1ccccc1 [Compound 68a, (R)-5-(5-((1-Phenylethyl)amino)pyridin-3-yl)-1H-benzo[d]imidazol-2(3H)-one] | 0.21 | 0.59
8 | C[C@H](Nc1cncc(-c2ccc3[nH]c(=O)[nH]c3c2)c1)c1ccccc1 [Compound 68b, (S)-5-(5-((1-Phenylethyl)amino)pyridin-3-yl)-1H-benzo[d]imidazol-2(3H)-one] | 2.18 | 7.5
